For one experiment, the target named is Estrogen receptor beta (Homo sapiens, UniProt Q92731). Description: Inhibition of estrogen receptor beta.
The next experiment addresses T1, Estrogen receptor (Homo sapiens, UniProt P03372).
T1 sequence (P03372 whole entry): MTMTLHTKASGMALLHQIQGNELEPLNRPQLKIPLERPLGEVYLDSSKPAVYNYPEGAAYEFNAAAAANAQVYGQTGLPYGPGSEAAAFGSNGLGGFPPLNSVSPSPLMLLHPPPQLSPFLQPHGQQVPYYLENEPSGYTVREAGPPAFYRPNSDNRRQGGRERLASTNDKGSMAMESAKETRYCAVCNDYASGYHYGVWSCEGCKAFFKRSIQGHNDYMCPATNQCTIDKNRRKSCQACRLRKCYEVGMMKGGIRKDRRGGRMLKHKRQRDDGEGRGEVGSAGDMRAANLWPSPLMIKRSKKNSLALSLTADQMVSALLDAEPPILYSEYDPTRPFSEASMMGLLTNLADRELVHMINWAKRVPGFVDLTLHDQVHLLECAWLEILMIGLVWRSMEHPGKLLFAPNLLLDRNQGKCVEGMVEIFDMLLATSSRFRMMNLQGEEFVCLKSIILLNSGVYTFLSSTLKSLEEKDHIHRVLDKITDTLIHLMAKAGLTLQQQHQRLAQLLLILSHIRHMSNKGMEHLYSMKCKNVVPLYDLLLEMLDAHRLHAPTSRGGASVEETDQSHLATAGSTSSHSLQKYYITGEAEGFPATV

The target in experiment [1] is T2, Estrogen receptor (Mus musculus) (UniProt P19785).
T2 sequence (whole entry): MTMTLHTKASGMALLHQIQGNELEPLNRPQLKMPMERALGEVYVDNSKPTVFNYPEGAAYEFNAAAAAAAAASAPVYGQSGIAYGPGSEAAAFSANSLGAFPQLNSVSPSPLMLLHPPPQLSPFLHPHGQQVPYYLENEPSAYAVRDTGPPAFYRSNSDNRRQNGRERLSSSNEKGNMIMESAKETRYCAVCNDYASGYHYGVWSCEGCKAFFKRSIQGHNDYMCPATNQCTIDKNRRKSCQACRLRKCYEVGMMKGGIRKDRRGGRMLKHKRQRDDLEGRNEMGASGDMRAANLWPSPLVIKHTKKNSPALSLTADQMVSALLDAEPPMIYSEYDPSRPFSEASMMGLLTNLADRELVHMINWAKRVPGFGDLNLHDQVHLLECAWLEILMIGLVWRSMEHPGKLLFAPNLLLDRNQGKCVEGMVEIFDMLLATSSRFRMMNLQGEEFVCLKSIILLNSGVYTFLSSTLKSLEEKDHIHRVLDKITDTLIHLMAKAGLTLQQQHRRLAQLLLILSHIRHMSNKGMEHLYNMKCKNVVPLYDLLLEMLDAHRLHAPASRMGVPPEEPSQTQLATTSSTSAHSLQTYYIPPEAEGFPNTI
The settings on record: Uterus.
Description: Uterine weight assay of compound was determined in vivo against estrogen receptor alpha

In experiment [2] the target is T2, Estrogen receptor (Mus musculus).
Description: Bone mineral density of compound was determined in vivo against estrogen receptor alpha

SMILES strings stand for the structures. pIC50: −log10 of the molar value.

Sequence of Estrogen receptor beta (Q92731 whole entry): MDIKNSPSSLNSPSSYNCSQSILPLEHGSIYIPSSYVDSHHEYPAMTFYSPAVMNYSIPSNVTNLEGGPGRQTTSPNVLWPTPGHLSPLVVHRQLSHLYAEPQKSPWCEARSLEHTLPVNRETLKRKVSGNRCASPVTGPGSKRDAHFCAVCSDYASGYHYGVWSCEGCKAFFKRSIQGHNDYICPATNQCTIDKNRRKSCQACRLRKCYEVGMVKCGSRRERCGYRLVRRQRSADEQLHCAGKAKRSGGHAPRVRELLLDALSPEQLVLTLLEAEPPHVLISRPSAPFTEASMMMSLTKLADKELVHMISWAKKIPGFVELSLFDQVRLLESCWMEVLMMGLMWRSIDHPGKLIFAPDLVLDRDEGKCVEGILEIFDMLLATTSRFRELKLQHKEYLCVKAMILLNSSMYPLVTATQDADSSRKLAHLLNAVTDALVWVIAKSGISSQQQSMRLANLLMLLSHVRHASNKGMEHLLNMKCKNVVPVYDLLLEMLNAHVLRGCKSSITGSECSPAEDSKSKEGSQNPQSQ

For orientation: pIC50 means the negative decadic logarithm of the IC50, by convention in mol/L. With `O=C(c1ccc(N2CCN(C3CCCC3)CC2)cc1)c1c(-c2ccc(O)cc2)sc2cc(O)ccc12`, the negative logarithm of the IC50 (pIC50) at Estrogen receptor beta is 7.74; on Estrogen receptor, 8.97.
Turning to `O=C(c1ccc(N2CCN(Cc3ccccc3)CC2)cc1)c1c(-c2ccc(O)cc2)sc2cc(O)ccc12`, the values for the negative logarithm of the IC50 (pIC50) on Estrogen receptor beta and on Estrogen receptor were 8.26 and 9.01, respectively.
The corresponding values for `CCCN1CCN(c2ccc(C(=O)c3c(-c4ccc(O)cc4)sc4cc(O)ccc34)cc2)CC1` are 7.53 and 8.84.
In the case of `O=C(c1ccc(N2CCN(C(=O)c3ccncc3)CC2)cc1)c1c(-c2ccc(O)cc2)sc2cc(O)ccc12`, the negative logarithm of the IC50 (pIC50) against Estrogen receptor beta is 7.03; against Estrogen receptor it was 7.84.
As to `O=C(c1ccc(N2CCN(c3ccc(Cl)cc3)CC2)cc1)c1c(-c2ccc(O)cc2)sc2cc(O)ccc12`, the negative-log IC50 (pIC50) against Estrogen receptor beta is 8.04; against Estrogen receptor, 9.66. Besides, the Uterine weight in experiment [1] was 30.5 mg. The Bone mineral density in experiment [2] stood at 482 mg/cubic cm.
In the same order, the values of `CC(C)N1CCN(c2ccc(C(=O)c3c(-c4ccc(O)cc4)sc4cc(O)ccc34)cc2)CC1` are 7.47, 9.55, 38.8 mg and 541 mg/cubic cm.
With `O=C(c1ccc(N2CCN(C(=O)c3ccccc3O)CC2)cc1)c1c(-c2ccc(O)cc2)sc2cc(O)ccc12`, the pIC50 against Estrogen receptor beta is 8.10; against Estrogen receptor, 8.52.
On to `O=C(c1ccc(N2CCN(C(=O)c3ccc([N+](=O)[O-])cc3)CC2)cc1)c1c(-c2ccc(O)cc2)sc2cc(O)ccc12`, for which the negative logarithm of the IC50 (pIC50) against Estrogen receptor beta was 8.90; against Estrogen receptor it was 8.67.
The corresponding values for `O=C(c1ccc(N2CCN(C(=O)c3cccc(O)c3)CC2)cc1)c1c(-c2ccc(O)cc2)sc2cc(O)ccc12` are 7.70 and 8.86.
In the same order, the values of `Cc1cccc(C(=O)N2CCN(c3ccc(C(=O)c4c(-c5ccc(O)cc5)sc5cc(O)ccc45)cc3)CC2)c1` are 7.90 and 9.57.
As to `O=C(c1ccc(N2CCN(C(=O)c3ccccc3)CC2)cc1)c1c(-c2ccc(O)cc2)sc2cc(O)ccc12`, the negative logarithm of the IC50 (pIC50) at Estrogen receptor beta was 7.60; on Estrogen receptor it was 9.07.
`O=C(c1ccc(N2CCN(Cc3ccc([N+](=O)[O-])cc3)CC2)cc1)c1c(-c2ccc(O)cc2)sc2cc(O)ccc12` had a negative-log IC50 (pIC50) against Estrogen receptor beta of 7.85.
For `O=C(c1ccc(N2CCN(C(=O)c3ccc(Cl)cc3)CC2)cc1)c1c(-c2ccc(O)cc2)sc2cc(O)ccc12`, the pIC50 was 8.40 against Estrogen receptor beta and 9.11 on Estrogen receptor.
In the same order, the values of `Cc1cc(C)nc(N2CCN(c3ccc(C(=O)c4c(-c5ccc(O)cc5)sc5cc(O)ccc45)cc3)CC2)n1` are 7.18 and 8.67.
As for `O=C(c1ccc(N2CCN(C(=O)c3ccccc3Cl)CC2)cc1)c1c(-c2ccc(O)cc2)sc2cc(O)ccc12`, the negative-log IC50 (pIC50) is 8.49 at Estrogen receptor beta and 8.76 against Estrogen receptor.
Take `O=C(c1ccc(N2CCN(C(=O)c3cccc(Cl)c3)CC2)cc1)c1c(-c2ccc(O)cc2)sc2cc(O)ccc12`: the pIC50 against Estrogen receptor beta was 8.43; against Estrogen receptor, 9.34. The same compound returned a Uterine weight in experiment [1] of 29.3 mg. For the same compound, in experiment [2], the Bone mineral density was 432 mg/cubic cm.
Regarding `Cc1ccccc1C(=O)N1CCN(c2ccc(C(=O)c3c(-c4ccc(O)cc4)sc4cc(O)ccc34)cc2)CC1`, the results for the pIC50 against Estrogen receptor beta and on Estrogen receptor were 7.75 and 8.40, respectively.
As to `O=C(c1ccc(N2CCN(C(=O)c3ccco3)CC2)cc1)c1c(-c2ccc(O)cc2)sc2cc(O)ccc12`, the negative-log IC50 (pIC50) at Estrogen receptor beta is 7.70; on Estrogen receptor, 8.58.
The corresponding values for `Cc1ccc(C(=O)N2CCN(c3ccc(C(=O)c4c(-c5ccc(O)cc5)sc5cc(O)ccc45)cc3)CC2)cc1` are 8.31 and 8.56.
Turning to `O=C(c1ccc(N2CCN(C(=O)c3ccccc3[N+](=O)[O-])CC2)cc1)c1c(-c2ccc(O)cc2)sc2cc(O)ccc12`, the negative logarithm of the IC50 (pIC50) against Estrogen receptor beta was 7.89; against Estrogen receptor, 8.45.

The values above are taken from ChEMBL document CHEMBL1141904, “Benzothiophenes containing a piperazine side chain as selective ligands for the estrogen receptor alpha and their bioactivities in vivo” (Bioorg Med Chem Lett, 2005).
